Tests used:
[1] = Clearance in Sprague-Dawley rat plasma at 1 mg/kg, iv administered as 30 mins infusion by LC-MS/MS analysis; type: ADME, organism-based
Rattus norvegicus = assay: Dose normalized AUC in Sprague-Dawley rat plasma at 2 mg/kg, po administered as gastric bolus dose by LC-MS/MS analysis; type: ADME, organism-based; conditions: in vivo
[2] = Oral bioavailability in Sprague-Dawley rat plasma at 2 mg/kg administered as gastric bolus dose by LC-MS/MS analysis; type: ADME, organism-based
[3] = target: T1, Serine/threonine-protein kinase TNNI3K (Homo sapiens, UniProt Q59H18); assay: Inhibition of 5-({[2-({[3-({4-[(5-hydroxy-2-methylphenyl)amino]-2-pyrimidinyl}amino)phenyl]carbonyl}amino)-ethyl]amino}carbonyl)-2-(6-hydroxy-3-oxo-3H-xanthen-9-yl)benzoic acid binding to human full length His/MBP-fused TNNI3K expressed in baculovirus expression system after 60 mins by fluorescence polarization assay
T1 sequence (Q59H18 whole entry): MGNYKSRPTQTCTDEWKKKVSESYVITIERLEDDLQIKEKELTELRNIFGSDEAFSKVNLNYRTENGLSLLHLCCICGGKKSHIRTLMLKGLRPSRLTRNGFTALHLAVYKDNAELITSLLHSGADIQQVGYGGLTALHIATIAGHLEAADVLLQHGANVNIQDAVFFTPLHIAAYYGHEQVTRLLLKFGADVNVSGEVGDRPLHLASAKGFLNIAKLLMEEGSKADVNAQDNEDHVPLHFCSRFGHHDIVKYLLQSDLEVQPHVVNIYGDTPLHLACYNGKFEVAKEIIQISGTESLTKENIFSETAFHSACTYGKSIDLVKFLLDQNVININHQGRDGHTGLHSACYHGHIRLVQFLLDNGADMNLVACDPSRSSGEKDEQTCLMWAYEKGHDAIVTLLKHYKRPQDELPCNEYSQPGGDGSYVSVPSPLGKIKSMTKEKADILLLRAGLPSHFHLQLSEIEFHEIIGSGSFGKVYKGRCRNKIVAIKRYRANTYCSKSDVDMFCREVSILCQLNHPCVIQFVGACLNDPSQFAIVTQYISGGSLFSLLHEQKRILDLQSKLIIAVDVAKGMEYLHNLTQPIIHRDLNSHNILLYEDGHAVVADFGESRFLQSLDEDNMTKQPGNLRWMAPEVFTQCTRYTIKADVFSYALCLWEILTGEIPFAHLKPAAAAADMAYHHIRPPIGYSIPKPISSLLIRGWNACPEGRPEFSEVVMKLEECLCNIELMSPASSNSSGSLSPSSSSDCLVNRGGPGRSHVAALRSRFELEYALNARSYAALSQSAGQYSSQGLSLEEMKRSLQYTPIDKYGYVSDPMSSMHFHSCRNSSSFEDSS

[4] = target: Serine/threonine-protein kinase B-raf (Homo sapiens, UniProt P15056); assay: Inhibition of full length His6-tagged BRAF (unknown origin) expressed in baculovirus expression system assessed as reduction in MEK phosphorylation by measuring ADP production by BRAMA
[5] = Selectivity index, ratio of IC50 for EGFR (unknown origin) to IC50 for human full length His/MBP-fused TNNI3K expressed in baculovirus expression system
[6] = target: Epidermal growth factor receptor (Homo sapiens, UniProt P00533); assay: Inhibition of EGFR (unknown origin)
[7] = target: T1, Serine/threonine-protein kinase TNNI3K; assay: Inhibition of human Myc-tagged TNNI3K autophosphorylation expressed in HEKMSR2 cells after 30 mins by DELFIA; type: cell-based
Heart = assay: Drug uptake in mouse heart at 100 mg/kg/day administered through diet; type: ADME, organism-based; conditions: in vivo, read-out: Drug uptake
[8] = Half life in Sprague-Dawley rat plasma at 2 mg/kg, po administered as gastric bolus dose or 1 mg/kg, iv administered as 30 mins infusion by LC-MS/MS analysis; type: ADME, organism-based
Blood [9] = assay: Drug uptake in mouse blood at 100 mg/kg/day administered through diet; type: ADME, organism-based; conditions: in vivo, read-out: Drug uptake
[10] = Selectivity index, ratio of IC50 for full length His6-tagged BRAF (unknown origin) expressed in baculovirus expression system to IC50 for human full length His/MBP-fused TNNI3K expressed in baculovirus expression system
[11] = Fraction unbound in mouse plasma; type: ADME, cell-free
Blood [12] = assay: Unbound drug level in mouse blood at 100 mg/kg/day administered through diet; type: ADME, organism-based; conditions: in vivo
[13] = Volume of distribution at steady state in Sprague-Dawley rat plasma at 2 mg/kg, po administered as gastric bolus dose or 1 mg/kg, iv administered as 30 mins infusion by LC-MS/MS analysis; type: ADME, organism-based; conditions: read-out: Vdss

Chain of Serine/threonine-protein kinase B-raf (P15056 whole entry, the tested form may be a part): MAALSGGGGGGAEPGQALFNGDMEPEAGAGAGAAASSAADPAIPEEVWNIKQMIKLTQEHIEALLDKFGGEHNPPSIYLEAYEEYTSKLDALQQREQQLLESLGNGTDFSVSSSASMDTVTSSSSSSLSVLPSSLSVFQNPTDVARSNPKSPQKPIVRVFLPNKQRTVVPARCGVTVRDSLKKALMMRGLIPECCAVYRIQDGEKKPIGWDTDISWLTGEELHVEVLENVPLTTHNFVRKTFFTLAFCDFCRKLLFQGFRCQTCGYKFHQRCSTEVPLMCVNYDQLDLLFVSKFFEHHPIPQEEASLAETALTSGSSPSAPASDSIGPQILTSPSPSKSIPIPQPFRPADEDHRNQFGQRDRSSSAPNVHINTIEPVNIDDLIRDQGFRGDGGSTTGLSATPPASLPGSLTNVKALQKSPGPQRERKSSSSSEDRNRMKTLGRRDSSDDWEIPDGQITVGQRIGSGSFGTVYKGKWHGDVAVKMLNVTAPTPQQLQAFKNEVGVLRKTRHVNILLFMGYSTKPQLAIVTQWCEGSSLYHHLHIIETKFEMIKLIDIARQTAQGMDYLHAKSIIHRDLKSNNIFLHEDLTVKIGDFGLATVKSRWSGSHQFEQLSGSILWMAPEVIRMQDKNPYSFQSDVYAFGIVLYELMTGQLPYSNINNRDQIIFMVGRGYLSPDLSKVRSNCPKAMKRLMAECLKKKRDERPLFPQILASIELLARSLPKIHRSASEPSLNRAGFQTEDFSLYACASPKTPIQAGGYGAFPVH
Chain of Epidermal growth factor receptor (P00533 whole entry): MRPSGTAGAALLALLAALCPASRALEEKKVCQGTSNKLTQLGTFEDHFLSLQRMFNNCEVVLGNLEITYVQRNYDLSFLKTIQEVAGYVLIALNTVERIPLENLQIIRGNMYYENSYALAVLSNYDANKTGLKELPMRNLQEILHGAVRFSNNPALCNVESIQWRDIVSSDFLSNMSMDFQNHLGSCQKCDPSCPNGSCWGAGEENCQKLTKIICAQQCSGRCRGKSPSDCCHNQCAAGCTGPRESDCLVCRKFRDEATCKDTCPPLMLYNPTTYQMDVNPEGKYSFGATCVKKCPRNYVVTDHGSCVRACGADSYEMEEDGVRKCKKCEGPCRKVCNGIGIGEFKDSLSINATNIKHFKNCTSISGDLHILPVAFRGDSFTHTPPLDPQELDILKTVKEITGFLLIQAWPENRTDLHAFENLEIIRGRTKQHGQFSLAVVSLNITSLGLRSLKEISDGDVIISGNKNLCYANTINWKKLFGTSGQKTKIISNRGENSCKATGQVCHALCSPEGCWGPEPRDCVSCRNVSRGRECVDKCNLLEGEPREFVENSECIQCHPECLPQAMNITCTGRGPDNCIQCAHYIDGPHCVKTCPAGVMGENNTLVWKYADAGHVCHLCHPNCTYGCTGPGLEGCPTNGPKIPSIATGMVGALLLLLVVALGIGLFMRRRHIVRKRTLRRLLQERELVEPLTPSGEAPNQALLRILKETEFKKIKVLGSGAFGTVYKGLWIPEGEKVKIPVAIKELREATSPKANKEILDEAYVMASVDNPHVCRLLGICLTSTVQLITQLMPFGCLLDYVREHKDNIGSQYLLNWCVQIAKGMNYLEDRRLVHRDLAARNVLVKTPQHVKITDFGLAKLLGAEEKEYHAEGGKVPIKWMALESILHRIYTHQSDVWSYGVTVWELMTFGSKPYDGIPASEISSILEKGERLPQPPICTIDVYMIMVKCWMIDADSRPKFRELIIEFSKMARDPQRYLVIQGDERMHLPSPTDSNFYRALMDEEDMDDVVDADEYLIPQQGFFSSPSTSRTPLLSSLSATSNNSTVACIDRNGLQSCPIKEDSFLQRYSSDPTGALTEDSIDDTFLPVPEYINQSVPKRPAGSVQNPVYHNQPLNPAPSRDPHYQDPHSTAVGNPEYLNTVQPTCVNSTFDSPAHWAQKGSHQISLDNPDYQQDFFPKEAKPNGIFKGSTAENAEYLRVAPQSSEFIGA

clearance [1] [mL/min/kg] | AUC/dose (Rattus norvegicus) [kg·h/L] | bioavailability [2] [%] | IC50 [3] [nM] | Compound | also measured
53 | 0.1 | 33 | 79 | CNS(=O)(=O)c1cccc(Nc2cc(Nc3cccc(Br)c3)ncn2)c1 | 
 |  |  | 79 | CNS(=O)(=O)c1cccc(Nc2cc(Nc3ccc(C)cc3)ncn2)c1 | 
7.4 | 2.3 | 99 | ≤ 10 | CNS(=O)(=O)c1ccc(OCC(F)(F)F)c(Nc2cc(Nc3ccc(Cl)cn3)ncn2)c1 | IC50 [4]: 13 nM
86 | 0.037 | 19 | 32 | CNS(=O)(=O)c1cccc(Nc2cc(Nc3cccc(C)c3)ncn2)c1 | Ratio IC50 [5]: 0.1; IC50 [6]: 3 nM
 |  |  | 2000 | CNS(=O)(=O)c1cccc(Nc2cc(N(C)c3cccc(C)c3)ncn2)c1 | Ratio IC50 [5]: 0.01; IC50 [6]: 20 nM
 |  |  | 79 | CNS(=O)(=O)c1cccc(Nc2cc(Nc3cccc(S(=O)(=O)NC)c3)ncn2)c1 | Ratio IC50 [5]: 20; IC50 [6]: 1600 nM
16 | 0.86 | 84 |  | CNS(=O)(=O)c1ccc(OC(F)(F)F)c(Nc2cc(Nc3ccc(Cl)cc3)ncn2)c1 | IC50 [7]: 320 nM
 |  |  | 63 | CNS(=O)(=O)c1cccc(Nc2cc(Nc3cccc(OC)c3)ncn2)c1 | 
 |  |  | 50 | CNS(=O)(=O)c1cccc(Nc2cc(Nc3cccc(C(C)C)c3)ncn2)c1 | Ratio IC50 [5]: 0.5; IC50 [6]: 25 nM
20 | 0.32 | 37 |  | CNS(=O)(=O)c1ccc(OCC(F)(F)F)c(Nc2cc(Nc3ccc(Cl)cc3)ncn2)c1 | 
26 | 0.69 | 100 |  | CNS(=O)(=O)c1ccc(OC)c(Nc2cc(Nc3ccc(Cl)cc3)ncn2)c1 | 
 |  |  | 16 | CNS(=O)(=O)c1cccc(Nc2cc(Nc3ccc(C(F)(F)F)cn3)ncn2)c1 | 
 |  |  | 630 | CNS(=O)(=O)c1cccc(Nc2ccnc(Nc3cccc(C)c3)n2)c1 | 
23 | 0.71 | 100 | 79 | CNS(=O)(=O)c1cccc(Nc2cc(Nc3ccc(Cl)cc3)ncn2)c1 | IC50 [6]: 13 nM
14 | 0.7 | 55 |  | CNS(=O)(=O)c1ccc(Cl)c(Nc2cc(Nc3ccc(Cl)cc3)ncn2)c1 | 
 |  |  | 5000 | CNS(=O)(=O)c1cccc(Nc2ccnc(Nc3cccc(C)c3)c2)c1 | 
 |  |  | 79 | CNS(=O)(=O)c1cccc(Nc2cc(Nc3ccc(S(C)(=O)=O)cc3)ncn2)c1 | 
 |  |  | 800 | CNc1cc(Nc2cccc(S(=O)(=O)NC)c2)ncn1 | 
 |  |  | 79 | CNS(=O)(=O)c1cccc(Nc2cc(Nc3ccc(C(F)(F)F)cc3)ncn2)c1 | 
 |  |  | 20 | CNS(=O)(=O)c1cccc(Nc2ncnc(Nc3cccc(C)c3)n2)c1 | 

clearance [1] [mL/min/kg] | AUC/dose (Rattus norvegicus) [kg·h/L] | bioavailability [2] [%] | IC50 [3] [nM] | Compound | also measured
14 | 0.56 | 48 | ≤ 10 | CCS(=O)(=O)c1ccc(S(=O)(=O)NC)cc1Nc1cc(Nc2ccc(Cl)cn2)ncn1 | concentration (Heart): 1100 nM; half-life [8]: 2.3 h; IC50 [7]: 8 nM; concentration (Blood [9]): 400 to 1600 nM; IC50 [4]: 250 nM; Ratio IC50 [10]: >=25; fraction unbound [11]: 0.035; Drug uptake(free) (Blood [12]): 14 to 56 nM; IC50 [6]: > 25000 nM; Vd [13]: 1.9 L/kg
12 | 0.91 | 67 |  | CNS(=O)(=O)c1ccc(OC(F)(F)F)c(Nc2cc(Nc3ccc(Cl)cn3)ncn2)c1 | IC50 [7]: 63 nM
 |  |  | 200 | CNS(=O)(=O)c1cccc(Nc2cc(Nc3cccc(S(C)(=O)=O)c3)ncn2)c1 | 
52 | 0.064 | 20 | 79 | CNS(=O)(=O)c1cccc(Nc2cc(Nc3cccc(Cl)c3)ncn2)c1 | 
 |  |  | 160 | CNS(=O)(=O)c1cccc(Nc2cc(Nc3ccc(OC)cc3)ncn2)c1 | 
 |  |  | 50 | CNS(=O)(=O)c1cccc(Nc2ncnc(Nc3ccc(Cl)cc3)n2)c1 | 
 | 0.27 |  | ≤ 10 | CNS(=O)(=O)c1ccc(S(=O)(=O)C(C)C)c(Nc2cc(Nc3ccc(Cl)cn3)ncn2)c1 | IC50 [4]: 500 nM; Ratio IC50 [10]: >=50
 | 1.1 |  |  | CNS(=O)(=O)c1ccc(F)c(Nc2cc(Nc3ccc(Cl)cc3)ncn2)c1 | 
4.5 | 2.1 | 52 |  | CNS(=O)(=O)c1ccc(SC)c(Nc2cc(Nc3ccc(Cl)cc3)ncn2)c1 | 
9.9 | 1.3 | 75 | ≤ 10 | CNS(=O)(=O)c1ccc(OC)c(Nc2cc(Nc3ccc(Cl)cn3)ncn2)c1 | IC50 [4]: 20 nM; Ratio IC50 [10]: >=2
 |  |  | 8000 | CNS(=O)(=O)c1cccc(N(C)c2cc(Nc3cccc(C)c3)ncn2)c1 | Ratio IC50 [5]: 0.25; IC50 [6]: 2000 nM
 |  |  | 3200 | CNS(=O)(=O)c1cccc(Nc2cc(Nc3ccccc3OC)ncn2)c1 | 
16 | 0.67 | 65 | 20 | CNS(=O)(=O)c1cccc(Nc2cc(Nc3ccc(Cl)cn3)ncn2)c1 | Ratio IC50 [5]: 32; IC50 [6]: 630 nM
 |  |  | 63 | CNS(=O)(=O)c1cccc(Nc2cc(Nc3ccccc3)ncn2)c1 | 
 |  |  | 1300 | CNS(=O)(=O)c1cccc(Nc2cc(Nc3ccccc3C)ncn2)c1 | 
 | 0.076 |  | ≤ 10 | CNS(=O)(=O)c1ccc(S(=O)(=O)C(C)(C)C)c(Nc2cc(Nc3ccc(Cl)cn3)ncn2)c1 | IC50 [4]: 2000 nM; Ratio IC50 [10]: >=200
 |  |  | 630 | CNS(=O)(=O)c1cccc(Nc2cc(Nc3ccccc3F)ncn2)c1 | 
 |  |  |  | CNS(=O)(=O)c1cccc(Nc2cc(Nc3cccc([N+](=O)[O-])c3)ncn2)c1 | IC50 [7]: 500 nM; IC50 [6]: 4 nM
 | 0.76 |  | 13 | CNS(=O)(=O)c1ccc(S(C)(=O)=O)c(Nc2cc(Nc3ccc(Cl)cn3)ncn2)c1 | IC50 [4]: 200 nM; Ratio IC50 [10]: 15
52 | 0.096 | 30 | 79 | CNS(=O)(=O)c1ccc(N(C)C)c(Nc2cc(Nc3ccc(Cl)cc3)ncn2)c1 | 

From ChEMBL document CHEMBL4020849, “4,6-Diaminopyrimidines as Highly Preferred Troponin I-Interacting Kinase (TNNI3K) Inhibitors” (J Med Chem, 2018)
